The values below come from patent US20040176361A1, “Fused heterocyclic compound and medicinal use thereof” (priority 2001, published 2004).

In general, IC50 refers to the concentration that inhibits the measured activity by half. What is called melting point is the temperature, or range, at which the solid turns liquid. One may read the Ki as a measure of affinity in units of concentration, obtained from inhibition or displacement.

One data set concerns the target Recombinant human PARP (Homo sapiens, UniProt P09874). The experiment in a line: PARP enzyme activity inhibitory action. To be noted: for IC50: 3H-NAD, activated DNA, 25° C. 15 min.
A further data set has as its system P388D1 cells. The data set is described as follows: Hydrogen peroxide (H2O2) induced cytotoxicity suppressive action. The format is cell-based. Particulars: H2O2 (2 mM), 4 hr, LDH activity, read-out: Cell death suppressive action IC50. On the procedure: P388D1 cells cultured to confluence in a 25 cm^2 flask were sown in 96-well plate at a density of […]. The test compound was added, and the cells were incubated for 15 min (37° C.), after which H2O2 (2 mM) was added, and the cells were incubated for 4 hr. After the completion of the incubation, the culture supernatant was recovered, and the LDH activity, which is an index of cytotoxicity, was measured using an LDH-cytotoxicity test kit (Wako Pure Chemical Industries, Ltd.).

The nature of data set [1]: Stability test in 0.1 mol/L aqueous citric acid solution (HPLC residual ratio). The format is physicochemical. Particulars: 5 mg in 1 ml 0.1 mol/L aqueous citric acid, room temperature. On the procedure:
Each test compound (5 mg) was dissolved in 0.1 mol/L aqueous citric acid solution (1 ml), and the residual ratio of each compound was measured by HPLC under shading or no shading at room temperature one day and 8 days later. The residual ratio was calculated by comparing the area of HPLC immediately after dissolution of each compound with the area of HPLC one day or 8 days later.
column CAPCELPAK UG120 (C18)(Shiseido Co., Ltd.)
mobile phase 50 mmol/L aqueous sodium perchlorate solution (pH
detection wavelength 254 nm

The next data set addresses adrenalin α1 receptor. The experiment in a line: Affinity for adrenalin α1 receptor; 3H-prazosin binding. To be noted: rat brain crude synapse membrane, 25° C. 30 min. On the procedure: Preparation of crude synapse membrane and binding experiment were performed according to European Journal of Pharmacology, vol. 55, page 323 (1979). Crude synapse membranes were prepared from cryopreserved rat brain tissues, and a membrane sample and 3H-prazosin were incubated in the presence of a test compound at 25° C. for 30 min. […] The amount of non-specific binding was determined in the presence of 1 μM prazosin. The 50% suppression concentration (IC50) of the test compound was calculated from nonlinear regression, and the inhibition constant (Ki value) was determined.

Where [2] appears, read: PARP inhibitory activity IC50 (nM), average of 2 measurements.
Where [3] appears, read: PARP inhibitory activity IC50 (nM), average of 3 measurements.

Counter-ions that a name gives are not always drawn. Like-named read-outs stand apart in the source and are kept apart here.

Recombinant human PARP, sequence (P09874 whole entry): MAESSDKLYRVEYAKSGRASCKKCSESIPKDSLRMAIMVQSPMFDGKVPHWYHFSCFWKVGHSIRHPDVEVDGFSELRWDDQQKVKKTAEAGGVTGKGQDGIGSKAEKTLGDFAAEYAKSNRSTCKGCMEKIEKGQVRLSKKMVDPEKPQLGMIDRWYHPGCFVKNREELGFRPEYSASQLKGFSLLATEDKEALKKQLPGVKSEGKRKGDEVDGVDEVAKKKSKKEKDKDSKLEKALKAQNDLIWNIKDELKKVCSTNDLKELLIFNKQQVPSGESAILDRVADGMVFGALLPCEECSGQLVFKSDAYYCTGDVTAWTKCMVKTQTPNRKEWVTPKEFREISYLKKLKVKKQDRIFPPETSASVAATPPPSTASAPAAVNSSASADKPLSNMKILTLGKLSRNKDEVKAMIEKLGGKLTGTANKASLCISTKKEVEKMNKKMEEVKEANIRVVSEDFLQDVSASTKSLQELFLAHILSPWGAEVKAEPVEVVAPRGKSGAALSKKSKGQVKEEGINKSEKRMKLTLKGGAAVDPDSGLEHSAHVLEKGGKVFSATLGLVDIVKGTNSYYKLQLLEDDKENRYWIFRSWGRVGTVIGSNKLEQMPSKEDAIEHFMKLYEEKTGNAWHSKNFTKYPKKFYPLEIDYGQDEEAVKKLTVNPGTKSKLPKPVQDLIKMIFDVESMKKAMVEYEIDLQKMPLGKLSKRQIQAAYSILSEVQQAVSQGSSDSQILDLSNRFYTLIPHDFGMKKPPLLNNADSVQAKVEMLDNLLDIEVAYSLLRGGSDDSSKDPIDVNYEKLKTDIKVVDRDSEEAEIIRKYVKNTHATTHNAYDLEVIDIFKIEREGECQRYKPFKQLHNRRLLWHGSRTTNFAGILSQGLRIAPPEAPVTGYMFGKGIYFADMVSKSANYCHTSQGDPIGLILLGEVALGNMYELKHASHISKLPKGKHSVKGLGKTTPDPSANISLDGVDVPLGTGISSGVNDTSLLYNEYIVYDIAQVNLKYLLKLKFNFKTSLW
Procedure for Recombinant human PARP: After incubation at 25° C. for 15 min., the reaction was quenched with 20% trichloroacetic acid, and the resulting acid insoluble fraction was adsorbed on a GF/B filter. The filter was washed several times with 5% trichloroacetic acid, and the radiation dose on the filter was measured by liquid scintillation counter.

Turning to `O=C1NCCc2c(OCCCCN3CCCCC3)cccc21` [DPQ, 3,4-dihydro-5-[4-(1-piperidinyl)-butoxy]-1(2H)-isoquinoline, reference compound], the IC50 came out at 1000 nM at Recombinant human PARP (read-out: PARP inhibitory activity IC50, average of 3 measurements) and 3300 nM in the data set with P388D1 cells.
Consider `Cc1cccc2c(=O)[nH]c(N3CCN(C)CC3)cc12` [Example 1, 5-methyl-3-(4-methylpiperazin-1-yl)-2H-isoquinolin-1-one], for which the IC50 at Recombinant human PARP (setting [2]) was determined as 42 nM; at Recombinant human PARP (setting [3]), 38 nM; in the data set with P388D1 cells (Mus musculus), 120 nM.
For `Cc1cccc2c(=O)[nH]c(N3CCC(N(C)C)CC3)cc12` [Example 12, 5-methyl-3-(4-dimethylaminopiperidin-1-yl)-2H-isoquinolin-1-one], in that order: 34 nM, 37 nM and 110 nM.
In the case of `CN(C)C1CCN(c2cc3c(Cl)cccc3c(=O)[nH]2)CC1` [Example 29, 5-chloro-3-(4-dimethylaminopiperidin-1-yl)-2H-isoquinolin-1-one], the melting point is 210 to 211 °C (dec.). Also, the IC50 at Recombinant human PARP (setting [3]) came out at 65 nM.
Consider `CN1CCC(c2cc3ccccc3c(=O)[nH]2)CC1` [Example 82, 3-(1-methylpiperidin-4-yl)-2H-isoquinolin-1-one ⅕ water adduct], for which, in data set [1], the “residual ratio (%) under shading 1 day later” value is “≈100%”, the “residual ratio (%) under shading 8 days later” value is recorded as “≈100%”, the “residual ratio (%) without shading 1 day later” value is “≈100%” and the “residual ratio (%) without shading 8 days later” value was “≈100%”. Further, on Recombinant human PARP (setting [3]), the half-maximal inhibitory concentration (IC50) was determined as 34 nM. In addition, in the data set on P388D1 cells (Mus musculus), the IC50 was found to be 190 nM.
For the molecule `Cc1cccc2c(=O)[nH]c(CCCN(C)C)cc12` [Example 90, 3-(3-(dimethylamino)propyl)-5-methyl-2H-isoquinolin-1-one], the results for the IC50 at Recombinant human PARP (setting [3]) and in the data set with P388D1 cells (Mus musculus) were 26 nM and 140 nM, respectively.
With `CN1CCC(c2[nH]c(=O)c3ccccc3c2-c2ccccc2)CC1` [Example 98, 3-(1-methylpiperidin-4-yl)-4-phenyl-2H-isoquinolin-1-one ⅕ water adduct], the melting point is 258 to 260 °C (dec.). For the same molecule, on Recombinant human PARP (setting [3]), the IC50 amounted to 87 nM.
For `CN1CCC(c2cc3c(F)cccc3c(=O)[nH]2)CC1` [Example 106, 5-fluoro-3-(1-methylpiperidin-4-yl)-2H-isoquinolin-1-one], in that order: 220 to 222 °C and 40 nM.
For `COc1cccc2c(=O)[nH]c(C3CCN(C)CC3)cc12` [Example 107, 5-methoxy-3-(1-methylpiperidin-4-yl)-2H-isoquinolin-1-one], in that order: 239 to 242 °C and 45 nM.
Turning to `CN1CCC(c2cc3c(O)cccc3c(=O)[nH]2)CC1` [Example 108, 5-hydroxy-3-(1-methylpiperidin-4-yl)-2H-isoquinolin-1-one], in data set [1], the “residual ratio (%) under shading 1 day later” value is “≈100%”, the “residual ratio (%) under shading 8 days later” value is “≈100%”, the “residual ratio (%) without shading 1 day later” value is on record as “≈100%” and the “residual ratio (%) without shading 8 days later” value is reported as “≈100%”. Moreover, the IC50 at Recombinant human PARP (setting [3]) stood at 12 nM. Besides, the IC50 in the data set on P388D1 cells (Mus musculus) came to 124 nM.
`Cc1cccc2c(=O)[nH]c(C3CCN(C)CC3)nc12` [Example 121, 2-(1-methylpiperidin-4-yl)-8-methyl-3H-quinazolin-4-one]: in data set [1], the “residual ratio (%) under shading 1 day later” value is listed as “≈100%” and the “residual ratio (%) under shading 8 days later” value is “≈100%”. The IC50 at Recombinant human PARP (setting [3]) stood at 37 nM. Further, the IC50 in the data set with P388D1 cells (Mus musculus) is 240 nM.
As for `Cc1cccc2c(=O)[nH]c(C3CN4CCC3CC4)nc12` (centres unmarked) [Example 138, 2-(1-azabicyclo[2.2.2]octan-3-yl)-8-methyl-3H-quinazolin-4-one], the melting point was 230 to 231 °C (dec.). Besides, the IC50 at Recombinant human PARP (setting [3]) is 58 nM.
`CN1CCN(c2cc3ccccc3c(=O)[nH]2)C[C@H]1CO` [Example 156, (S)-3-(3-hydroxymethyl-4-methylpiperazin-1-yl)-2H-isoquinolin-1-one]: the IC50 at Recombinant human PARP (setting [3]) was 35 nM; with P388D1 cells (Mus musculus), 230 nM. This molecule also yielded a Ki on adrenalin α1 receptor greater than 100000 nM.
In the case of `Cc1cccc2c(=O)[nH]c(C3CCN(C)CC3)cc12` [Example 178, 5-methyl-3-(1-methylpiperidin-4-yl)-2H-isoquinolin-1-one], the figures for the IC50 at Recombinant human PARP (setting [3]) and in the data set with P388D1 cells (Mus musculus) were 23 nM and 90 nM, respectively.
For `CN1CCC(c2cc3c(N)cccc3c(=O)[nH]2)CC1` [Example 181, 5-amino-3-(1-methylpiperidin-4-yl)-2H-isoquinolin-1-one], in that order: 22 nM and 220 nM.
In the case of `CN1CCC(c2cc3ccc(Cl)cc3c(=O)[nH]2)CC1` [Example 183, 7-chloro-3-(1-methylpiperidin-4-yl)-2H-isoquinolin-1-one], the melting point is 253 to 255 °C. Also, at Recombinant human PARP (setting [3]), the IC50 was found to be 44 nM.
With `CN1CCC(C2Cc3c(O)cccc3C(=O)N2)CC1` (centres unmarked) [Example 184, 5-hydroxy-3-(1-methylpiperidin-4-yl)-3,4-dihydro-2H-isoquinolin-1-one], the melting point lay in the range of 216 to 218 °C. In addition, on Recombinant human PARP (setting [3]), the IC50 stood at 26 nM.
As for `CN(C)CCCc1cc2c(O)cccc2c(=O)[nH]1` [Example 186, 5-hydroxy-3-(3-dimethylaminopropyl)-2H-isoquinolin-1-one hydrochloride], the IC50 on Recombinant human PARP (setting [3]) was determined as 14 nM; in the data set on P388D1 cells (Mus musculus) it was 130 nM.
`CN(C)CCCCc1cc2c(O)cccc2c(=O)[nH]1.Cl` [Example 188, 5-hydroxy-3-(4-dimethylaminobutyl)-2H-isoquinolin-1-one hydrochloride] displayed a melting point of 231 to 233 °C. In addition, at Recombinant human PARP (setting [3]), the IC50 stood at 57 nM.
As to `O=c1[nH]c(CCN2CCCCC2)cc2c(O)cccc12` [Example 189, 5-hydroxy-3-(2-(piperidin-1-yl)ethyl)-2H-isoquinolin-1-one], the IC50 turned out to be 17 nM on Recombinant human PARP (setting [3]) and 85 nM in the data set on P388D1 cells (Mus musculus).
In turn, `CN1CC=C(c2cc3ccccc3c(=O)[nH]2)CC1` [Example 190, 3-(1-methyl-1,2,3,6-tetrahydropyridin-4-yl)-2H-isoquinolin-1-one] registered a melting point of 222 to 223 °C. Moreover, the IC50 on Recombinant human PARP (setting [3]) is 39 nM.
Molecule `CN1CCN(c2cc3c(F)cccc3c(=O)[nH]2)CC1CO` (centres unmarked) [Example 205, 5-fluoro-3-(3-hydroxymethyl-4-methylpiperazin-1-yl)-2H-isoquinolin-1-one] showed a melting point of 216 to 217 °C. Besides, the IC50 on Recombinant human PARP (setting [3]) was 54 nM.
Consider `Cc1cccc2c(=O)[nH]c(N3CCN(C)[C@H](CO)C3)cc12` [Example 212, (S)-3-(3-hydroxymethyl-4-methylpiperazin-1-yl)-5-methyl-2H-isoquinolin-1-one], for which the IC50 at Recombinant human PARP (setting [3]) came to 23 nM; in the data set with P388D1 cells (Mus musculus) it was 70 nM. For the same molecule, at adrenalin α1 receptor, the Ki is greater than 100000 nM.
As to `O=c1[nH]c(CCCN2CCCC2)cc2ccccc12` [Example 213, 3-(3-(pyrrolidin-1-yl)propyl)-2H-isoquinolin-1-one], the melting point was 117 to 119 °C. Moreover, the IC50 on Recombinant human PARP (setting [3]) is 57 nM.
As for `CN1CCN(c2cc3c(Cl)cccc3c(=O)[nH]2)CC1CO` (centres unmarked) [Example 214, 5-chloro-3-(3-hydroxymethyl-4-methylpiperazin-1-yl)-2H-isoquinolin-1-one], the melting point fell in the range of 212 to 214 °C. Moreover, at Recombinant human PARP (setting [3]), the IC50 was 45 nM.
For `O=c1[nH]c(CCCN2CCCC2)cc2c(O)cccc12` [Example 217, 5-hydroxy-3-(3-(pyrrolidin-1-yl)propyl)-2H-isoquinolin-1-one], in that order: 222 to 225 °C and 28 nM.
As for `CN1CCN(c2cc3ccccc3c(=O)[nH]2)CC1` [Example Y-3011, reference compound], in data set [1], the “residual ratio (%) under shading 1 day later” value was determined as 76% and the “residual ratio (%) under shading 8 days later” value is 32%. Further, on Recombinant human PARP (setting [3]), the IC50 was determined as 50 nM. Further, the “PARP inhibitory activity (in words)” value at Recombinant human PARP (comparison drawn from Table 1) is recorded as “most superior PARP inhibitory activity”. This molecule also showed a Ki on adrenalin α1 receptor of 4000 nM.
